From ChEMBL document CHEMBL1201862, “PubChem BioAssay data set” (2004)
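Tested at 5 concentrations; 48 h exposure; 96-well plates; endpoints linearly interpolated, else capped at highest concentration. The concentration for 50% growth inhibition is given as GI50.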 The source made the active and inactive calls. Cut-off read from the data, not from the text of the source: active = GI50 up to about 1.1 µM and inactive = higher.

Key:
Test in all cases: NCI tumour cell line growth inhibition, 48 h
786-0 = system: 786-0
A549 = system: A549
BT-549 = system: BT-549
CAKI-1 = system: CAKI-1
CCRF-CEM = system: CCRF-CEM
COLO 205 = system: COLO 205
DU-145 = system: DU-145
EKVX = system: EKVX
HCC 2998 = system: HCC 2998
HCT-116 = system: HCT-116
HCT-15 = system: HCT-15
HL-60 = system: HL-60
HOP-62 = system: HOP-62
HOP-92 = system: HOP-92
HT-29 = system: HT-29
Hs-578T = system: Hs-578T
IGROV-1 = system: IGROV-1
K562 = system: K562
KM12 = system: KM12
LOX IMVI = system: LOX IMVI
M14 = system: M14
MCF7 = system: MCF7
MDA-MB-231 = system: MDA-MB-231
MDA-MB-435 = system: MDA-MB-435
MDA-N = system: MDA-N
MOLT-4 = system: MOLT-4
Malme-3M = system: Malme-3M
NCI-H226 = system: NCI-H226
NCI-H23 = system: NCI-H23
NCI-H460 = system: NCI-H460
NCI-H522 = system: NCI-H522
NCI/ADR-RES = system: NCI/ADR-RES
OVCAR-3 = system: OVCAR-3
OVCAR-4 = system: OVCAR-4
OVCAR-8 = system: OVCAR-8
PC-3 = system: PC-3
RPMI-8226 = system: RPMI-8226
RXF 393 = system: RXF 393
SF-268 = system: SF-268
SF-295 = system: SF-295
SF-539 = system: SF-539
SK-MEL-28 = system: SK-MEL-28
SK-MEL-2 = system: SK-MEL-2
SK-MEL-5 = system: SK-MEL-5
SK-OV-3 = system: SK-OV-3
SN12C = system: SN12C
SNB-19 = system: SNB-19
SNB-75 = system: SNB-75
SR = system: SR
SW-620 = system: SW-620
T47D = system: T47D
TK-10 = system: TK-10
U-251 = system: U-251
UACC-257 = system: UACC-257
UACC-62 = system: UACC-62
UO-31 = system: UO-31
ACHN = system: ACHN
OVCAR-5 = system: OVCAR-5
A498 = system: A498

For `CC(=O)OCC1CCC(=C2C(=O)OC(C)(C)OC2=O)N1` (configuration not stated), the GI50 (786-0) was > 100 µM (inactive), the GI50 (A549) was > 100 µM (inactive) and the GI50 (BT-549) was > 100 µM (inactive). The GI50 (CAKI-1) was > 100 µM (inactive), the GI50 (CCRF-CEM) was > 100 µM (inactive) and the GI50 (COLO 205) was > 100 µM (inactive). For the same compound, the GI50 (DU-145) was > 100 µM (inactive), the GI50 (EKVX) was > 100 µM (inactive) and the GI50 (HCC 2998) was > 100 µM (inactive). For the same compound, the GI50 (HCT-116) was > 100 µM (inactive), the GI50 (HCT-15) was > 100 µM and the GI50 (HL-60) was > 100 µM (inactive). The GI50 (HOP-62) was > 100 µM (inactive), the GI50 (HOP-92) was > 100 µM (inactive) and the GI50 (HT-29) was > 100 µM (inactive). For the same compound, the GI50 (Hs-578T) was > 100 µM (inactive), the GI50 (IGROV-1) was > 100 µM (inactive) and the GI50 (K562) was > 100 µM (inactive). The GI50 (KM12) was > 100 µM (inactive), the GI50 (LOX IMVI) was > 100 µM (inactive) and the GI50 (M14) was > 100 µM (inactive). For the same compound, the GI50 (MCF7) was > 100 µM (inactive), the GI50 (MDA-MB-231) was > 100 µM (inactive) and the GI50 (MDA-MB-435) was > 100 µM (inactive). For the same compound, the GI50 (MDA-N) was > 100 µM (inactive), the GI50 (MOLT-4) was > 100 µM (inactive) and the GI50 (Malme-3M) was > 100 µM (inactive). For the same compound, the GI50 (NCI-H226) was > 100 µM (inactive), the GI50 (NCI-H23) was > 100 µM (inactive) and the GI50 (NCI-H460) was > 100 µM (inactive). For the same compound, the GI50 (NCI-H522) was > 100 µM (inactive), the GI50 (NCI/ADR-RES) was > 100 µM (inactive) and the GI50 (OVCAR-3) was > 100 µM (inactive). For the same compound, the GI50 (OVCAR-4) was > 100 µM (inactive), the GI50 (OVCAR-8) was > 100 µM (inactive) and the GI50 (PC-3) was > 100 µM (inactive). The GI50 (RPMI-8226) was > 100 µM (inactive), the GI50 (RXF 393) was > 100 µM (inactive) and the GI50 (SF-268) was > 100 µM (inactive). For the same compound, the GI50 (SF-295) was > 100 µM (inactive), the GI50 (SF-539) was > 100 µM (inactive) and the GI50 (SK-MEL-28) was > 100 µM (inactive). The GI50 (SK-MEL-2) was > 100 µM (inactive), the GI50 (SK-MEL-5) was > 100 µM (inactive) and the GI50 (SK-OV-3) was > 100 µM (inactive). The GI50 (SN12C) was > 100 µM (inactive), the GI50 (SNB-19) was > 100 µM (inactive) and the GI50 (SNB-75) was > 100 µM (inactive). The GI50 (SR) was > 100 µM (inactive), the GI50 (SW-620) was > 100 µM (inactive) and the GI50 (T47D) was > 100 µM (inactive). The GI50 (TK-10) was > 100 µM (inactive), the GI50 (U-251) was > 100 µM (inactive) and the GI50 (UACC-257) was > 100 µM (inactive). For the same compound, the GI50 (UACC-62) was > 100 µM (inactive) and the GI50 (UO-31) was > 100 µM (inactive).
For `Cc1ccc([S+]([O-])CC(CF)OCn2cc(C)c(=O)[nH]c2=O)cc1` (configuration not stated), the GI50 (786-0) was > 100 µM (inactive), the GI50 (A549) was > 100 µM (inactive) and the GI50 (ACHN) was > 100 µM (inactive). The GI50 (BT-549) was 90.2 µM (inactive), the GI50 (CAKI-1) was > 100 µM (inactive) and the GI50 (COLO 205) was > 100 µM (inactive). For the same compound, the GI50 (DU-145) was > 100 µM (inactive), the GI50 (HCC 2998) was > 100 µM (inactive) and the GI50 (HCT-116) was > 100 µM (inactive). For the same compound, the GI50 (HCT-15) was > 100 µM, the GI50 (HL-60) was > 100 µM (inactive) and the GI50 (HOP-62) was > 100 µM (inactive). The GI50 (HOP-92) was > 100 µM (inactive), the GI50 (Hs-578T) was > 100 µM (inactive) and the GI50 (IGROV-1) was > 100 µM (inactive). For the same compound, the GI50 (KM12) was > 100 µM (inactive), the GI50 (LOX IMVI) was > 100 µM (inactive) and the GI50 (M14) was > 100 µM (inactive). For the same compound, the GI50 (MCF7) was > 100 µM (inactive), the GI50 (MDA-MB-231) was > 100 µM (inactive) and the GI50 (MDA-MB-435) was > 100 µM (inactive). The GI50 (MDA-N) was > 100 µM (inactive), the GI50 (MOLT-4) was > 100 µM (inactive) and the GI50 (Malme-3M) was > 100 µM (inactive). For the same compound, the GI50 (NCI-H226) was > 100 µM (inactive), the GI50 (NCI-H23) was > 100 µM (inactive) and the GI50 (NCI-H460) was > 100 µM (inactive). The GI50 (NCI-H522) was > 100 µM (inactive), the GI50 (NCI/ADR-RES) was > 100 µM (inactive) and the GI50 (OVCAR-3) was > 100 µM (inactive). The GI50 (OVCAR-4) was > 100 µM (inactive), the GI50 (OVCAR-5) was > 100 µM (inactive) and the GI50 (OVCAR-8) was > 100 µM (inactive). The GI50 (PC-3) was > 100 µM (inactive), the GI50 (RPMI-8226) was > 100 µM (inactive) and the GI50 (SF-268) was > 100 µM (inactive). The GI50 (SF-295) was > 100 µM (inactive), the GI50 (SF-539) was > 100 µM (inactive) and the GI50 (SK-MEL-28) was > 100 µM (inactive). The GI50 (SK-MEL-2) was > 100 µM (inactive), the GI50 (SK-MEL-5) was > 100 µM (inactive) and the GI50 (SK-OV-3) was > 100 µM (inactive). The GI50 (SN12C) was > 100 µM (inactive), the GI50 (SNB-19) was > 100 µM (inactive) and the GI50 (SNB-75) was > 100 µM (inactive). The GI50 (SR) was > 100 µM (inactive), the GI50 (SW-620) was > 100 µM (inactive) and the GI50 (T47D) was > 100 µM (inactive). The GI50 (TK-10) was > 100 µM (inactive), the GI50 (U-251) was > 100 µM (inactive) and the GI50 (UACC-62) was > 100 µM (inactive). The GI50 (UO-31) was > 100 µM (inactive).
For `O=C(CSc1nnc(-c2ccccn2)s1)N/N=C/c1ccccc1`, the GI50 (786-0) was 76.9 µM (inactive), the GI50 (A498) was > 100 µM (inactive) and the GI50 (A549) was > 100 µM (inactive). The GI50 (ACHN) was 89.3 µM (inactive), the GI50 (BT-549) was > 100 µM (inactive) and the GI50 (CAKI-1) was > 100 µM (inactive). The GI50 (CCRF-CEM) was > 100 µM (inactive), the GI50 (COLO 205) was > 100 µM (inactive) and the GI50 (DU-145) was > 100 µM (inactive). For the same compound, the GI50 (HCT-116) was > 100 µM (inactive), the GI50 (HCT-15) was > 100 µM and the GI50 (HOP-62) was 51.5 µM (inactive). For the same compound, the GI50 (HOP-92) was 86.7 µM (inactive), the GI50 (HT-29) was > 100 µM (inactive) and the GI50 (Hs-578T) was > 100 µM (inactive). For the same compound, the GI50 (IGROV-1) was > 100 µM (inactive), the GI50 (K562) was > 100 µM (inactive) and the GI50 (KM12) was > 100 µM (inactive). The GI50 (LOX IMVI) was > 100 µM (inactive), the GI50 (M14) was > 100 µM (inactive) and the GI50 (MCF7) was > 100 µM (inactive). For the same compound, the GI50 (MDA-MB-231) was > 100 µM (inactive), the GI50 (MDA-MB-435) was > 100 µM (inactive) and the GI50 (MDA-N) was > 100 µM (inactive). The GI50 (MOLT-4) was 63.5 µM (inactive), the GI50 (Malme-3M) was 97.7 µM (inactive) and the GI50 (NCI-H226) was > 100 µM (inactive). For the same compound, the GI50 (NCI-H23) was > 100 µM (inactive), the GI50 (NCI-H460) was > 100 µM (inactive) and the GI50 (NCI-H522) was > 100 µM (inactive). For the same compound, the GI50 (NCI/ADR-RES) was > 100 µM (inactive), the GI50 (OVCAR-3) was > 100 µM (inactive) and the GI50 (OVCAR-4) was > 100 µM (inactive). The GI50 (OVCAR-5) was > 100 µM (inactive), the GI50 (OVCAR-8) was > 100 µM (inactive) and the GI50 (PC-3) was > 100 µM (inactive). The GI50 (SF-268) was 48.9 µM (inactive), the GI50 (SF-295) was > 100 µM (inactive) and the GI50 (SF-539) was > 100 µM (inactive). The GI50 (SK-MEL-28) was > 100 µM (inactive), the GI50 (SK-MEL-2) was > 100 µM (inactive) and the GI50 (SK-MEL-5) was > 100 µM (inactive). For the same compound, the GI50 (SK-OV-3) was > 100 µM (inactive), the GI50 (SN12C) was > 100 µM (inactive) and the GI50 (SNB-19) was > 100 µM (inactive). The GI50 (SNB-75) was 3.03 µM (inactive), the GI50 (SR) was > 100 µM (inactive) and the GI50 (SW-620) was > 100 µM (inactive). The GI50 (T47D) was 46.8 µM (inactive), the GI50 (TK-10) was 89.1 µM (inactive) and the GI50 (U-251) was 54.5 µM (inactive). For the same compound, the GI50 (UACC-257) was > 100 µM (inactive), the GI50 (UACC-62) was > 100 µM (inactive) and the GI50 (UO-31) was 39.4 µM (inactive).
